{"source": "patent US20080318938A1", "about": "“METHODS FOR TREATING ABERRANT CELL PROLIFERATION DISORDERS” (priority 2007, published 2008)", "experiment_in_all_cases": "Inhibition of cell proliferation (MTT)", "format_in_all_cases": "cell-based", "key": {"SNB-19": {"tested_on": "SNB-19", "settings": "Homo sapiens; SNB-19, CNS; 48 hours", "method": "(§1) Inhibition of cell proliferation is determined in human tumor cell lines. Innoculation density and doubling times for specific cell lines are listed at World Wide Web URL “dtp.nci.nih.gov/docs/misc/common_files/cell_list.html.”\n(§2) • 1. Plate adherent cells the day before starting the experiment in 180 μl growth media (see list hereafter). • 2. Day of experiment, count and plate suspension cells in 180 μl growth media (see list on next page). • 3. Make 10× Compound, vehicle, and chemotherapeutic cocktail • a. Compound (1× to 10×) • i. 10 μM Compound to 100 μM • ii. 3 μM Compound to 30 μM • iii. 1 μM Compound to 10 μM • iv. 0.3 μM Compound to 3 μM • v. 0.1 μM Compound to 1 μM • b. Vehicle • i. PBS, equivalent to the volume used for 10 μM Compound (1× is ˜0.06% PBS) • c. Chemotherapeutic cocktail (1× to 10×): • i. 1 μM Velcade to 10 μM • ii. 100 μM Etoposide to 1 mM • iii. 20 μM Taxol to 200 μM • 4. Add 20 μl of the 10× compound/vehicle/chemotherapeutic cocktail to cells. • 5. Incubate at 37° C., 5% CO2 for 48 hours. • 6. Aspirate media. For suspension cells, spin plate at 1500 RPM for 10 minutes. Use a multichannel pipettor to slowly remove media. • 7. Add 200 μl of Thiazolyl Blue Tetrazolium Bromide (MTT) to each well: 0.863 mg/ml MTT in growth media.\n(§3) Proliferation of several cancer cells was inhibited by compound TA1-1B (which is a particular mixture of the isomers represented by TA1-1A), as shown in the following table (Table 1). The value EC50 is the amount of Compound TA1-1B that results in 50% inhibition of proliferation of the indicated cell type."}, "U251": {"tested_on": "U251", "settings": "Homo sapiens, U-251; U251, CNS; 48 hours", "method": "as §1, §2, §3"}, "Kasumi-1": {"tested_on": "Kasumi-1", "settings": "Homo sapiens; Kasumi-1, Leukemia; 48 hours", "method": "as §1, §2, §3"}, "COLO 205": {"tested_on": "COLO 205", "settings": "Homo sapiens; COLO 205, Colon; 48 hours", "method": "as §1, §2, §3"}, "Jurkat": {"tested_on": "Jurkat", "settings": "Homo sapiens, Leukemia, 48 hours", "method": "as §1, §2, §3"}, "OVCAR-4": {"tested_on": "OVCAR-4", "settings": "Homo sapiens; OVCAR-4, Ovarian; 48 hours", "method": "as §1, §2, §3"}, "U266B1": {"tested_on": "U266B1", "settings": "Homo sapiens; U266B1, Lymphoma; 48 hours", "method": "as §1, §2, §3"}, "SUDHL4": {"tested_on": "SUDHL4", "settings": "Homo sapiens, SU-DHL-4; SUDHL4, Lymphoma; 48 hours", "method": "as §1, §2, §3"}, "IGROV1": {"tested_on": "IGROV1", "settings": "Homo sapiens, IGROV-1; IGROV1, Ovarian; 48 hours", "method": "as §1, §2, §3"}, "Hs602": {"tested_on": "Hs602", "settings": "Homo sapiens; Hs602, Lymphoma; 48 hours", "method": "as §1, §2, §3"}, "SN12C": {"tested_on": "SN12C", "settings": "Homo sapiens, Renal, 48 hours", "method": "as §1, §2, §3"}, "UO-31": {"tested_on": "UO-31", "settings": "Homo sapiens; UO-31, Renal; 48 hours", "method": "as §1, §2, §3"}, "HCT-15": {"tested_on": "HCT-15", "settings": "Homo sapiens; HCT-15, Colon; 48 hours", "method": "as §1, §2, §3"}, "D1-1": {"tested_on": "D1-1", "settings": "Homo sapiens; D1-1, Leukemia; 48 hours", "method": "as §1, §2, §3"}, "H9": {"tested_on": "H9", "settings": "Homo sapiens; H9, Lymphoma; 48 hours", "method": "as §1, §2, §3"}, "Jgamma-1": {"tested_on": "Jgamma-1", "settings": "Homo sapiens, J.gamma1; Jgamma-1, Leukemia; 48 hours", "method": "as §1, §2, §3"}, "SF-295": {"tested_on": "SF-295", "settings": "Homo sapiens; SF-295, CNS; 48 hours", "method": "as §1, §2, §3"}, "TF-1": {"tested_on": "TF-1", "settings": "Homo sapiens; TF-1, Leukemia; 48 hours", "method": "as §1, §2, §3"}, "GDM-1": {"tested_on": "GDM-1", "settings": "Homo sapiens; GDM-1, Leukemia; 48 hours", "method": "as §1, §2, §3"}, "EKVX": {"tested_on": "EKVX", "settings": "Homo sapiens, Non Small Cell Lung, 48 hours", "method": "as §1, §2, §3"}, "Raji": {"tested_on": "Raji", "settings": "Homo sapiens, Lymphoma, 48 hours", "method": "as §1, §2, §3"}, "ST486": {"tested_on": "ST486", "settings": "Homo sapiens; ST486, Lymphoma; 48 hours", "method": "as §1, §2, §3"}, "HuT102": {"tested_on": "HuT102", "settings": "Homo sapiens, HuT-102; HuT102, Lymphoma; 48 hours", "method": "as §1, §2, §3"}, "SF-539": {"tested_on": "SF-539", "settings": "Homo sapiens; SF-539, CNS; 48 hours", "method": "as §1, §2, §3"}, "U937": {"tested_on": "U937", "settings": "Homo sapiens, U-937; U937, Lymphoma; 48 hours", "method": "as §1, §2, §3"}, "HH": {"tested_on": "HH", "settings": "Homo sapiens, Lymphoma, 48 hours", "method": "as §1, §2, §3"}, "MV-4-11": {"tested_on": "MV-4-11", "settings": "Homo sapiens, MV4-11; MV-4-11, Leukemia; 48 hours", "method": "as §1, §2, §3"}, "BT-549": {"tested_on": "BT-549", "settings": "Homo sapiens; BT-549, Breast; 48 hours", "method": "as §1, §2, §3"}, "M14": {"tested_on": "M14", "settings": "Homo sapiens; M14, Melanoma; 48 hours", "method": "as §1, §2, §3"}, "MOLT4": {"tested_on": "MOLT4", "settings": "Homo sapiens, MOLT-4; MOLT4, Leukemia; 48 hours", "method": "as §1, §2, §3"}, "TK-10": {"tested_on": "TK-10", "settings": "Homo sapiens; TK-10, Renal; 48 hours", "method": "as §1, §2, §3"}}}
{"smiles": "CN1CCC[C@H]1CCNC(=O)c1cn2c3c(c(N4CCC(c5cnccn5)C4)c(F)cc3c1=O)Oc1cc3ccccc3cc1-2", "note": "(stereo partly shown) [TA1-1B]", "values": [{"measurement": "EC50", "setting": "SNB-19", "value": 4630, "unit": "nM"}, {"measurement": "EC50", "setting": "U251", "value": 2680, "unit": "nM"}, {"measurement": "EC50", "setting": "Kasumi-1", "value": 2050, "unit": "nM"}, {"measurement": "EC50", "setting": "COLO 205", "value": 707, "unit": "nM"}, {"measurement": "EC50", "setting": "Jurkat", "value": 1210, "unit": "nM"}, {"measurement": "EC50", "setting": "OVCAR-4", "value": 2960, "unit": "nM"}, {"measurement": "EC50", "setting": "U266B1", "value": 1620, "unit": "nM"}, {"measurement": "EC50", "setting": "SUDHL4", "value": 1340, "unit": "nM"}, {"measurement": "EC50", "setting": "IGROV1", "value": 4440, "unit": "nM"}, {"measurement": "EC50", "setting": "Hs602", "value": 1280, "unit": "nM"}, {"measurement": "EC50", "setting": "SN12C", "value": 4160, "unit": "nM"}, {"measurement": "EC50", "setting": "UO-31", "value": 2380, "unit": "nM"}, {"measurement": "EC50", "setting": "HCT-15", "value": 1510, "unit": "nM"}, {"measurement": "EC50", "setting": "D1-1", "value": 4160, "unit": "nM"}, {"measurement": "EC50", "setting": "H9", "value": 2240, "unit": "nM"}, {"measurement": "EC50", "setting": "Jgamma-1", "value": 1720, "unit": "nM"}, {"measurement": "EC50", "setting": "SF-295", "value": 4270, "unit": "nM"}, {"measurement": "EC50", "setting": "TF-1", "value": 5460, "unit": "nM"}, {"measurement": "EC50", "setting": "GDM-1", "value": 1260, "unit": "nM"}, {"measurement": "EC50", "setting": "EKVX", "value": 5670, "unit": "nM"}, {"measurement": "EC50", "setting": "Raji", "value": 1880, "unit": "nM"}, {"measurement": "EC50", "setting": "ST486", "value": 1280, "unit": "nM"}, {"measurement": "EC50", "setting": "HuT102", "value": 1050, "unit": "nM"}, {"measurement": "EC50", "setting": "SF-539", "value": 1110, "unit": "nM"}, {"measurement": "EC50", "setting": "U937", "value": 4540, "unit": "nM"}, {"measurement": "EC50", "setting": "HH", "value": 4040, "unit": "nM"}, {"measurement": "EC50", "setting": "MV-4-11", "value": 5810, "unit": "nM"}, {"measurement": "EC50", "setting": "BT-549", "value": 1800, "unit": "nM"}, {"measurement": "EC50", "setting": "M14", "value": 4980, "unit": "nM"}, {"measurement": "EC50", "setting": "MOLT4", "value": 1220, "unit": "nM"}, {"measurement": "EC50", "setting": "TK-10", "value": 3330, "unit": "nM"}]}
